Measured values as given in the C3SDB collision cross section collection.
Values belong to the molecule of their own block, whether it stands above or below them.

Legend:
[1] = instrument: TW, calibrated with polyalanine
[2] = instrument: TW, calibrated with polyalanine; remark: listed apart in the source
[3] = instrument: DT, stepped-field
[4] = instrument: DT, stepped-field; remark: listed apart in the source
[5] = instrument: DT, single field, calibrated with Agilent tune mix (Agilent)

collision cross section (N2) ([2]; [M+H]+): 127 Å²
Compound: CSCC[C@H](N)C(=O)O [Methionine]

collision cross section (N2) ([3]; [M+H]+): 133.81 Å²
collision cross section (N2) ([3]; [M-H]-): 131.29 Å²
collision cross section (N2) ([4]; [M+H]+): 136.97 Å²
Compound: CC[C@H](C)[C@H](N)C(=O)O [L-Isoleucine]

collision cross section (N2) ([3]; [M-H]-): 173.41 Å²
Compound: CCCCCCCCCCCCCCCCC(=O)O [Margaric acid]

collision cross section (N2) ([5]; [M-H]-): 173.88 Å²
collision cross section (N2) ([3]; [M-H]-): 176.46 Å²
Compound: CCCCCCCC/C=C\CCCCCCCC(=O)O [Oleic acid]

collision cross section (N2) ([2]; [M+H]+): 135 Å²
Compound: N[C@@H](Cc1ccccc1)C(=O)O [Phenylalanine]

collision cross section (N2) ([3]; [M+H]+): 134.08 Å²
collision cross section (N2) ([4]; [M+H]+): 133.65 Å²
Compound: CSCC[C@H](N)C(=O)O [L-Methionine]

collision cross section (N2) ([2]; [M+H]+): 174 Å²
Compound: O=c1ccn([C@@H]2O[C@H](COP(=O)(O)OP(=O)(O)O)[C@@H](O)[C@H]2O)c(=O)[nH]1 [UDP]

collision cross section (N2) ([2]; [M+Na]+): 170 Å²
Compound: Cc1cn([C@H]2C[C@H](O)[C@@H](COP(=O)(O)O)O2)c(=O)[nH]c1=O [dTMP]

collision cross section (N2) ([2]; [M+H]+): 139 Å²
Compound: N[C@@H](Cc1ccc(O)cc1)C(=O)O [Tyrosine]

collision cross section (N2) ([5]; [M-H]-): 174.42 Å²
collision cross section (N2) ([3]; [M-H]-): 177.66 Å²
Compound: CCCCCCCCCCCCCCCCCC(=O)O [Stearic acid]

collision cross section (N2) ([5]; [M+H]+): 145.7 Å²
collision cross section (N2) ([3]; [M+H]+): 146.45 Å²
collision cross section (N2) ([3]; [M-H]-): 145.59 Å²
collision cross section (N2) ([4]; [M+Na]+): 143.97 Å²
Compound: N[C@@H](Cc1ccc(O)cc1)C(=O)O [L-Tyrosine]

collision cross section (N2) ([5]; [M+H]+): 140.3 Å²
collision cross section (N2) ([3]; [M+H]+): 141.28 Å²
collision cross section (N2) ([3]; [M-H]-): 141.29 Å²
collision cross section (N2) ([4]; [M+Na]+): 138.91 Å²
Compound: N[C@@H](Cc1ccccc1)C(=O)O [L-Phenylalanine]

collision cross section (N2) ([2]; [M+H]+): 179 Å²
Compound: Nc1ncnc2c1ncn2[C@@H]1O[C@H](CSCC[C@H](N)C(=O)O)[C@@H](O)[C@H]1O [SAH]

collision cross section (N2) ([5]; [M+H]+): 134 Å²
collision cross section (N2) ([2]; [M+H]+): 130 Å²
collision cross section (N2) ([4]; [M+H]+): 135.79 Å²
collision cross section (N2) ([4]; [M+Na]+): 148.49 Å²
Compound: Cc1ncc(CO)c(CN)c1O [Pyridoxamine]

collision cross section (N2) ([3]; [M-H]-): 183.32 Å²
Compound: CCCCC/C=C\C/C=C\CCCCCCCCCC(=O)O [cis-11,14-Eicosadienoic acid]

collision cross section (N2) ([5]; [M+H]+): 118.5 Å²
collision cross section (N2) ([2]; [M+H]+): 115 Å²
collision cross section (N2) ([4]; [M+H]+): 126.98 Å²
Compound: O=c1cc[nH]c(=O)[nH]1 [Uracil]

collision cross section (N2) ([2]; [M]+): 184 Å²
Compound: C[S+](CC[C@H](N)C(=O)[O-])C[C@H]1O[C@@H](n2cnc3c(N)ncnc32)[C@H](O)[C@@H]1O (some centres not stated) [SAMe]

collision cross section (N2) ([3]; [M+Na]+): 147.35 Å²
Compound: OC[C@H]1OC(O)[C@H](O)[C@@H](O)[C@@H]1O (stereo partly drawn) [a-D-Glucose]

collision cross section (N2) ([3]; [M-H]-): 184.29 Å²
Compound: CCCCCCCC/C=C\CCCCCCCCCC(=O)O [cis-Gondoic acid]

collision cross section (N2) ([3]; [M-H]-): 165.34 Å²
Compound: CCCCCCCCCCCCCCC(=O)O [Pentadecanoic acid]

collision cross section (N2) ([2]; [M+H]+): 115 Å²
Compound: O=C(O)c1cccnc1 [Nicotinic acid]

Second part, the molecule before the results:

Compound: CC1=C2C(=CO[C@H](C)[C@H]2C)C(=O)C(C(=O)O)=C1O [Citrinin]
collision cross section (N2) ([1]; [M+H]+): 148 Å²

Compound: NC(=O)NCCC[C@H](N)C(=O)O [Citrulline]
collision cross section (N2) ([2]; [M+H]+): 132 Å²

Compound: CN(C)C(N)=NCCC[C@H](N)C(=O)O [ADMA]
collision cross section (N2) ([2]; [M+H]+): 141 Å²

Compound: CC[C@H](C)[C@H](NC(=O)[C@H](Cc1ccc(O)cc1)NC(=O)[C@@H](NC(=O)[C@H](CCCN=C(N)N)NC(=O)[C@@H](N)CC(=O)O)C(C)C)C(=O)N[C@@H](Cc1cnc[nH]1)C(=O)N1CCC[C@H]1C(=O)N[C@@H](Cc1ccccc1)C(=O)O [Angiotensin II]
collision cross section (N2) ([3]; [M+2H]2+): 353.79 Å²
collision cross section (N2) ([3]; [M+3H]3+): 436.24 Å²
collision cross section (N2) ([3]; [M+H]+): 314.38 Å²

Compound: C=CC(C)(C)C12CC3C(=O)N/C(=C/c4cnc[nH]4)C(=O)N3C1Nc1ccccc12 (configuration not stated) [Roquefortine C]
collision cross section (N2) ([1]; [M+H]+): 179 Å²

Compound: Nc1nc(=O)c2[nH]cnc2[nH]1 [Guanine]
collision cross section (N2) ([2]; [M+H]+): 124 Å²
collision cross section (N2) ([4]; [M+H]+): 133.55 Å²

Compound: OC[C@H]1OC(O)[C@H](O)[C@@H](O)[C@@H]1O (some centres not stated) [Glucose]
collision cross section (N2) ([2]; [M+Na]+): 138 Å²

Compound: CC(=O)N[C@@H]1[C@@H](O)[C@H](O)[C@@H](CO)O[C@H]1O [Acetylglucosamine]
collision cross section (N2) ([2]; [M+Na]+): 153 Å²

Compound: O=C(O)CC(O)(CC(=O)O)C(=O)O [Citric acid]
collision cross section (N2) ([2]; [M+Na]+): 138 Å²

Compound: COc1cc2c(c3oc(=O)c4c(c13)CCC4=O)[C@@H]1C=CO[C@@H]1O2 [Aflatoxin B1]
collision cross section (N2) ([1]; [M+H]+): 161 Å²
collision cross section (N2) ([1]; [M+K]+): 177.1 Å²
collision cross section (N2) ([1]; [M+Na]+): 164 Å²

Compound: CC(=O)C1=C(O)[C@@H]2[C@H]3c4c[nH]c5cccc(c45)C[C@H]3C(C)(C)N2C1=O [Cyclopiazonic acid]
collision cross section (N2) ([1]; [M-H]-): 174 Å²

Compound: CCCC[C@@H](C)[C@@H](O)[C@@H](O)C[C@@H](C)C[C@H](O)CCCC[C@@H](O)C[C@H](O)[C@H](C)N [HFB1]
collision cross section (N2) ([1]; [M+K]+): 214 Å²
collision cross section (N2) ([1]; [M+Na]+): 209.7 Å²

Compound: CC(=O)O[C@@H]1C[C@]2(C)[C@@]3(CO)[C@H](O)C(=O)C(C)=C[C@H]3O[C@H]1[C@@]21CO1 [3-Acetyldeoxynivalenol]
collision cross section (N2) ([1]; [M+H3C2O2]-): 196 Å²

Compound: CC(C)[C@H]1C(=O)O[C@H](C(C)C)C(=O)N(C)[C@@H](C(C)C)C(=O)O[C@H](C(C)C)C(=O)N(C)[C@@H](C(C)C)C(=O)O[C@H](C(C)C)C(=O)N1C [Enniatin B]
collision cross section (N2) ([1]; [M+H]+): 244.1 Å²
collision cross section (N2) ([1]; [M+K]+): 251.1 Å²
collision cross section (N2) ([1]; [M+NH4]+): 248 Å²
collision cross section (N2) ([1]; [M+Na]+): 248.9 Å²

Compound: OCC1(O)OC[C@@H](O)[C@@H](O)[C@@H]1O (some centres not stated) [Fructose]
collision cross section (N2) ([2]; [M+Na]+): 135 Å²

Compound: NC(N)=NCCC[C@H](N)C(=O)O [L-Arginine]
collision cross section (N2) ([5]; [M+H]+): 136.4 Å²
collision cross section (N2) ([3]; [M+H]+): 136.84 Å²
collision cross section (N2) ([3]; [M-H]-): 138.03 Å²
collision cross section (N2) ([4]; [M+Na]+): 147.8 Å²

Compound: N[C@@H]1[C@@H](O)[C@H](O)[C@@H](COP(=O)(O)O)O[C@@H]1O [Glucosamine 6-phosphate]
collision cross section (N2) ([2]; [M+H]+): 150 Å²

Compound: CC1=C[C@H]2O[C@@H]3[C@H](O)C[C@](C)([C@@]2(CO)[C@H](O)C1=O)[C@]31CO1 [Deoxynivalenol]
collision cross section (N2) ([1]; [M+H3C2O2]-): 183 Å²

Compound: C[N+](C)(C)CCO [Choline]
collision cross section (N2) ([5]; [M+H]+): 117.8 Å²
collision cross section (N2) ([2]; [M]+): 117 Å²
collision cross section (N2) ([4]; [M]+): 119 Å²

Compound: NC(N)=NCCC[C@H](N)C(=O)O [Arginine]
collision cross section (N2) ([2]; [M+H]+): 133 Å²

Compound: COc1cc2c(c3oc4cccc(O)c4c(=O)c13)[C@@H]1C=CO[C@@H]1O2 [Sterigmatocystin]
collision cross section (N2) ([1]; [M+H]+): 163 Å²

Compound: O=C1CC[C@@H](C(=O)O)N1 [5-Oxoproline]
collision cross section (N2) ([2]; [M+H]+): 121 Å²

Compound: CC(C)(O)[C@H]1O[C@H]2CC[C@@]3(C)[C@@](O)(CC[C@H]4Cc5c([nH]c6ccccc56)[C@@]43C)C2=CC1=O [Paxilline]
collision cross section (N2) ([1]; [M+H]+): 201 Å²

Compound: O=C(O)C(CO)OP(=O)(O)O (configuration not stated) [2-Phosphoglyceric acid]
collision cross section (N2) ([2]; [M+Na]+): 132 Å²

Compound: CC(=O)OC[C@]12[C@H](O)C(=O)C(C)=C[C@H]1O[C@@H]1[C@H](O)C[C@@]2(C)[C@]12CO2 [15-Acetyldeoxynivalenol]
collision cross section (N2) ([1]; [M+H3C2O2]-): 196 Å²

Compound: CCCCC/C=C\C/C=C\C/C=C\CCCCCCC(=O)O [Dihomo-gamma-Linolenic Acid]
collision cross section (N2) ([3]; [M-H]-): 183.02 Å²

Compound: CCCC[C@@H](C)[C@@H](OC(=O)C[C@@H](CC(=O)O)C(=O)O)[C@H](C[C@@H](C)CCCCCC[C@@H](O)C[C@H](O)[C@H](C)N)OC(=O)C[C@@H](CC(=O)O)C(=O)O [Fumonisin B2]
collision cross section (N2) ([1]; [M+H]+): 258 Å²
collision cross section (N2) ([1]; [M+K]+): 264.5 Å²
collision cross section (N2) ([1]; [M+Na]+): 259.2 Å²

Compound: CC[C@H](C)[C@H](N)C(=O)O [Isoleucine]
collision cross section (N2) ([2]; [M+H]+): 129 Å²

Compound: OC[C@H]1OC(O)[C@H](O)[C@@H](O)[C@H]1O (some centres not stated) [Galactose]
collision cross section (N2) ([2]; [M+Na]+): 136 Å²

Compound: O=C(O)[C@H]1OC(O)[C@H](O)[C@@H](O)[C@@H]1O (some centres not stated) [Glucuronic acid]
collision cross section (N2) ([2]; [M+Na]+): 140 Å²

Compound: COc1cc2c(c3oc(=O)c4c(c13)CCOC4=O)C1C=COC1O2 (configuration not stated) [Aflatoxin G1]
collision cross section (N2) ([1]; [M+H]+): 164 Å²
collision cross section (N2) ([1]; [M+K]+): 180.2 Å²
collision cross section (N2) ([1]; [M+Na]+): 176.5 Å²

Compound: COc1cc2c(c3oc(=O)c4c(c13)CCC4=O)[C@]1(O)C=CO[C@@H]1O2 [Aflatoxin M1]
collision cross section (N2) ([1]; [M+H]+): 166 Å²
collision cross section (N2) ([1]; [M+K]+): 177.8 Å²
collision cross section (N2) ([1]; [M+Na]+): 179.5 Å²

Compound: C[C@H]1CCC[C@@H](O)CCC/C=C/c2cc(O)cc(O)c2C(=O)O1 [beta-zearalenol]
collision cross section (N2) ([1]; [M-H]-): 173 Å²

Compound: Nc1nc(=O)c2ncn([C@@H]3O[C@H](COP(=O)(O)O)[C@@H](O)[C@H]3O)c2[nH]1 [GMP]
collision cross section (N2) ([2]; [M+H]+): 176 Å²

Compound: CC1=C[C@H]2O[C@@H]3[C@H](O)[C@@H](O)[C@](C)([C@@]2(CO)[C@H](O)C1=O)[C@]31CO1 [Nivalenol]
collision cross section (N2) ([1]; [M+H3C2O2]-): 180 Å²
